Tested on: Renal Cell Carcinoma patients
Experiment: Clinical efficacy of Bevacizumab treatment by body imaging (size reduction of the tumor)
Assay type: in vivo, human
Protocol: (§1) A study is performed to generate kinase inhibition profiles from tumor tissues derived from Renal Cell Carcinoma patients treated with the drug Bevacizumab. The tissue is derived from tumor resection performed before the Bevacizumab treatment is started. Bevacizumab is an antibody that blocks the triggering of the Vascular Endothelial Growth Factor Receptors (VEGFR), and thereby blocks the VEGFR signal transduction pathways.
The activity of the targeted VEGFR or VEGFR pathway is assessed in lysates prepared from Bevacizumab responding and non-responding patients. Clinical efficacy is determined using body imaging, thereby monitoring the size reduction of the tumor. In this assessment the lysates are profiled for activities of kinases on a peptide microarray comprising peptide substrates for protein tyrosine kinases. […] It is shown that peptides that are inhibited by these VEGFR kinase inhibitors, thus reporting VEGFR activity, are found in the microarray analyses of the Bevacizumab responding patients, and are not inhibited in the analyses of the patients not responding to Bevacizumab (Table 1). […] As these inhibition profiles are generated from tumor tissue derived from the patients before the treatment is started, these inhibition profiles are predictive for the clinical response of these patients. In patients with an active VEGFR pathway this drug is clinically active. In patients with no active VEGFR pathway no clinical effects are provided.
as §1, with “before” for “before the”, “thereby it” for “thereby”, “pathways. In patients with an active VEGFR pathway this drug is expected to be clinically active.” for “pathways.”
The activity of the alternative pathway is assessed in lysates prepared from Bevacizumab responding and non-responding patients. Clinical efficacy is determined using body imaging, thereby monitoring the size reduction of the tumor. In this assessment the lysates are profiled for activities of kinases on a peptide microarray comprising peptide substrates for protein tyrosine kinases. These kinase activity profiling tests are performed both in the presence and absence of an IGFR kinase inhibitor. […] It is shown that peptides that are inhibited by this IGFR kinase inhibitor, thus reporting IGFR activity, are found in the analyses of the Bevacizumab responding patients, and are not inhibited in the analyses of the patients not responding to Bevacizumab (Table 2). […] As these inhibition profiles are generated from tumor tissue derived from the patients before the treatment is started, these inhibition profiles are predictive for clinical response. Therefore, in patients with no active VEGFR pathway or with an alternative pathway allowing the tumor growth independent of the VEGFR signalling pathway, no clinical effect is obtained.

Q: With “Bevacizumab: antibody that blocks the triggering of the Vascular Endothelial Growth Factor Receptors (VEGFR); binds VEGF” as the substance, how does the Clinical response (Example 1, Patient 1, Renal Cell Carcinoma) read?
A: Responder

Q: And the Clinical response (Example 1, Patient 2, Renal Cell Carcinoma)?
A: Responder

Q: What about the Clinical response (Example 1, Patient 3, Renal Cell Carcinoma) of the same substance?
A: Non Responder

Q: And the Clinical response (Example 1, Patient 4, Renal Cell Carcinoma)?
A: Non Responder

Q: What about the Clinical response (Example 2, Patient 1, Renal Cell Carcinoma) of the same substance?
A: Responder

Q: And the Clinical response (Example 2, Patient 2, Renal Cell Carcinoma)?
A: Responder

Q: What about the Clinical response (Example 2, Patient 3, Renal Cell Carcinoma) of the same substance?
A: Non Responder

Q: What about the Clinical response (Example 2, Patient 4, Renal Cell Carcinoma) of the same substance?
A: Non Responder
